From publication PMC4550478, “Metronidazole-triazole conjugates: Activity against Clostridium difficile and parasites” (European Journal of Medicinal Chemistry, 2015)
≈ marks a conversion by molar mass, not a printed value. Read-outs that look alike come from different tables or passages of the source.

What was measured:
Assay type in all cases: cell-based
[1] = tested on: H. pylori clinical isolate 13/61; test: Metronidazole E-test, H. pylori 13/61; details: Helicobacter pylori
Description: Helicobacter pylori strains, with a range of resistance levels to metronidazole (256 µg/ml, 64 µg/ml, 24 µg/ml, 2 µg/ml, and 0.04 µg/ml), were selected and obtained from Helicobacter Research Laboratory, University of Western Australia. The resistance strength to metronidazole was recorded according to eTest (bioMérieux). H. pylori strain 26695 was used as the control. H. pylori was maintained on the non-selective Columbia blood agar plates (CBA) (Columbia agar base Oxoid) with 5% horse blood and incubated at 37 °C and 10% CO2 for 48 hrs. […] Each of the H. pylori strains were harvested, OD600 calibrated to 0.3, and spotted in triplicate on CBA pre-mixed with the compound. The lowest concentration of antibiotic showing no growth was read as the MIC. The experiment was performed in duplicate.

[2] = tested on: ESKAPE bacteria: S. aureus MRSA (ATCC 43300), E. coli (ATCC 25922), K. pneumoniae (ATCC 700603), A. baumannii (ATCC 19606) and P. aeruginosa (ATCC 27853); test: MIC against ESKAPE pathogens, aerobic; details: aerobic conditions, single concentration screen, n = 3
Description: All compounds were tested for activity against a set of anaerobic C. difficile bacteria (630 ATCC BAA-1382, NAP1/027 M7404, NAP1/027 ATCC BAA-1803, VPI10463 ATCC 43255, CD26A54_S and CD26A54_R) and representative ESKAPE pathogens S. aureus (MRSA ATCC 43300), E. coli (ATCC 25922), K. pneumoniae (ATCC 700603), A. baumannii (ATCC 19606) and P. aeruginosa (ATCC 27853) using a standard broth microdilution assay. Selected compounds were tested for activity against H. pylori strains (26695, and clinical isolates MtzS 13/25, MtzR 98/285 and MtzR 13/61) using agar plate dilution, and for antimicrobial activity against twelve Gram-positive bacterial strains: Enterococcus faecalis (VanA clinical isolate), Enterococcus faecium (MDR VanA ATCC 51559), Streptococcus pneumoniae (MDR ATCC 700677), S. aureus (MRSA ATCC 43300, MRSA clinical isolate, MRSA/DRSA clinical isolate, GISA NARSA NRS 1, GISA NARSA NRS 17, VRSA NARSA VRS1, VRSA NARSA VRS4 and VRSA NARSA VRS10) using broth microdilution. C. difficile strains were grown at 37 °C in a COY anaerobic chamber (5% H2, 10% CO2, 85% N2). H. pylori strains were grown at 37 °C under a microaerobic atmosphere (5% O2, 10% CO2). All facultative anaerobic bacteria were grown at 37 °C with normal atmospheric oxygen levels. […] Positive growth control of bacteria and DMSO as well as a negative control of only media were included for every plate. Full assay details are provided in the supplementary information.
MICs were determined by a two-fold serial broth micro dilution according to the recommendation of CLSI standards with an inoculum of 5 × 10^5 CFU/mL^4 The compounds along with standard antibiotics were serially diluted twofold across the wells of 96-well non-binding surface plates (NBS, Corning). […] Gram-positive and Gram-negative bacteria were cultured in Mueller Hinton broth (MHB) (Bacto laboratories, Cat. no. 211443) at 37 °C overnight. A sample of each culture was then diluted 40-fold in fresh MHB broth and incubated at 37 °C for 2-3 h. The resultant mid-log phase cultures were diluted to the final concentration of 5 × 10^5 CFU/mL, then 50 μL was added to each well of the compound containing 96-well plates. All the plates were covered and incubated at 37 °C for 24 h.

[3] = Cytotoxicity, resazurin, HEK293; details: human
Description: Compounds were tested for cytotoxicity against mammalian HepG2 and HEK293 cell lines, as detailed in the supplementary information.
HEK293 and HepG2 cells were seeded as 3000 and 5000 cells per well in 384-well plates, respectively. Cells were cultured in DMEM with 1% FBS for 24 hours at 37 °C, 5% CO2. Then a dilution series of compounds was added into each well, with the highest concentration of 100 µM. […] After 24 hours incubation with the compounds, 5 µM resazurin were added into each well and incubated at 37 °C for 2 hours. As a negative control, 1% Triton X-100 was added into the culture media to lyse all the cells. The fluorescence intensity was read using Polarstar Omega with excitation/emission 560/590. The data was analysed by GraphPad Prism software. Results are presented as the average percentage of control ± SD using the following equation: Percentage of Growth = (FITEST – FINegative/FIUNTREATED –FINegative)*100.

Structure (SMILES)	MIC [1]	MIC ESKAPE bacteria [2]	CC50 at 24 h [3]	CC50 at 24 h ([3]; no cytotoxicity up to 100 μM, 24 hours incubation, read-out: CC50 HEK293)
Cc1ncc([N+](=O)[O-])n1CCO [Compound 1, metronidazole]	256 µg/mL (≈ 1500 µM)	>32 µg/mL	> 100 µM	–
Cc1ncc([N+](=O)[O-])n1CCN=[N+]=[N-] [Compound 3, 1-(2-azidoethyl)-2-methyl-5-nitro-1H-imidazole]	–	>32 µg/mL	–	> 100 µM
